# Experimental data taken from the supplement of paper PMC10307832.
# Legend:
# Test in all cases: relative viability (nuclei count vs DMSO), 5 days (fraction); higher = more cells survive
# Erlotinib + Palbociclib = compound: C#Cc1cccc(Nc2ncnc3cc(OCCOC)c(OCCOC)cc23)c1 [Erlotinib] + CC(=O)c1c(C)c2cnc(Nc3ccc(N4CCNCC4)cn3)nc2n(C2CCCC2)c1=O [Palbociclib] (partner 0.5 µM)
# How it was run: (§1)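 Each reported value is a median over duplicate plates. It expresses relative viability: treated-well nuclei count divided by vehicle-well nuclei count. Lung cancer cell lines in 1536-well plates were dosed by pin tool a day after seeding, alone with one drug or with a fixed anchor-drug dose plus five library-drug doses (not always all listed) in √10 steps, and nuclei were counted after 5 days.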
# Erlotinib + Lapatinib = compound: C#Cc1cccc(Nc2ncnc3cc(OCCOC)c(OCCOC)cc23)c1 [Erlotinib] + CS(=O)(=O)CCNCc1ccc(-c2ccc3ncnc(Nc4ccc(OCc5cccc(F)c5)c(Cl)c4)c3c2)o1 [Lapatinib] (partner 2 µM)
# How it was run: as §1
# Erlotinib + Pictilisib = compound: C#Cc1cccc(Nc2ncnc3cc(OCCOC)c(OCCOC)cc23)c1 [Erlotinib] + CS(=O)(=O)N1CCN(Cc2cc3nc(-c4cccc5[nH]ncc45)nc(N4CCOCC4)c3s2)CC1 [Pictilisib] (partner 1 µM)
# How it was run: as §1
# Erlotinib + Olaparib = compound: C#Cc1cccc(Nc2ncnc3cc(OCCOC)c(OCCOC)cc23)c1 [Erlotinib] + O=C(c1cc(Cc2n[nH]c(=O)c3ccccc23)ccc1F)N1CCN(C(=O)C2CC2)CC1 [Olaparib] (partner 8 µM)
# How it was run: as §1
# AT9283 + Lapatinib = compound: O=C(Nc1c[nH]nc1-c1nc2ccc(CN3CCOCC3)cc2[nH]1)NC1CC1 [AT9283] + CS(=O)(=O)CCNCc1ccc(-c2ccc3ncnc(Nc4ccc(OCc5cccc(F)c5)c(Cl)c4)c3c2)o1 [Lapatinib] (partner 2 µM)
# How it was run: as §1
Cell Line,relative viability (Erlotinib + Palbociclib; first compound 0.02 µM),relative viability (Erlotinib + Palbociclib; first compound 0.2 µM),relative viability (Erlotinib + Palbociclib; first compound 0.6325 µM),relative viability (Erlotinib + Palbociclib; first compound 2 µM),relative viability (Erlotinib + Lapatinib; first compound 0.02 µM),relative viability (Erlotinib + Lapatinib; first compound 0.2 µM),relative viability (Erlotinib + Lapatinib; first compound 0.6325 µM),relative viability (Erlotinib + Lapatinib; first compound 2 µM),relative viability (Erlotinib + Pictilisib; first compound 0.02 µM),relative viability (Erlotinib + Pictilisib; first compound 0.2 µM),relative viability (Erlotinib + Pictilisib; first compound 0.6325 µM),relative viability (Erlotinib + Pictilisib; first compound 2 µM),relative viability (Erlotinib + Olaparib; first compound 0.02 µM),relative viability (Erlotinib + Olaparib; first compound 0.2 µM),relative viability (Erlotinib + Olaparib; first compound 0.6325 µM),relative viability (Erlotinib + Olaparib; first compound 2 µM),relative viability (AT9283 + Lapatinib; first compound 0.003 µM),relative viability (AT9283 + Lapatinib; first compound 0.03 µM),relative viability (AT9283 + Lapatinib; first compound 0.09487 µM),relative viability (AT9283 + Lapatinib; first compound 0.3 µM)
NCI-H460,0.257,0.14,0.198,0.183,0.918,1.1,0.999,0.959,0.351,0.335,0.412,0.353,0.453,0.345,0.425,0.363,1.05,0.0247,0.0158,0.0301
HCC-44,0.991,1.03,0.982,,,1.09,1.03,0.928,0.662,0.696,0.752,0.523,0.94,0.984,1.05,0.947,0.922,0.641,0.23,0.188
NCI-H2087,0.238,0.246,0.212,0.226,0.996,1.15,1.16,0.921,0.842,0.844,0.932,,0.622,0.576,0.576,0.469,0.894,0.269,0.222,0.186
UMC-11,0.364,0.328,0.345,0.382,1.04,0.952,1.11,0.919,0.795,0.7,1.04,0.816,0.987,0.426,0.477,0.324,0.978,0.142,0.128,0.202
NCI-H1355,0.387,0.344,0.325,0.269,1.03,0.98,1.06,0.998,0.499,0.392,0.407,0.312,0.796,0.709,0.684,0.558,1.01,0.911,0.845,0.168
H3255,0.31,0.325,0.275,0.251,0.323,0.259,0.253,,0.497,0.159,0.118,0.0937,0.661,0.469,0.387,0.242,0.22,0.258,0.173,0.159
NCI-H2085,0.465,0.44,0.379,0.381,0.775,0.74,0.845,,0.459,0.46,0.513,0.358,0.754,0.768,0.655,0.619,0.798,0.36,0.297,0.382
IA-LM,,,,,1.14,0.712,1.43,0.73,0.338,,0.348,0.13,0.757,,,0.905,0.793,0.27,0.0791,0.0891
LCLC-103H,0.503,0.429,0.457,0.467,,,,,0.614,0.587,0.753,0.538,0.745,0.75,,0.707,,,,
NCI-H2405,0.534,0.521,0.535,0.54,1.1,1.11,1.14,0.976,0.36,0.452,0.589,0.469,0.965,0.849,0.888,0.81,1.15,0.789,0.295,0.198
NCI-H1666,0.624,0.613,0.631,0.74,0.714,0.552,0.698,0.699,0.466,0.329,0.317,0.267,0.787,0.793,0.676,0.645,0.634,0.386,0.243,0.321
COR-L 105,0.402,0.322,0.359,0.328,0.368,0.322,0.335,0.36,0.406,0.342,0.351,0.332,0.638,0.603,0.47,0.294,0.371,0.256,0.223,0.337
ABC-1,,0.585,0.489,,1.26,1.25,1.3,0.971,0.656,0.71,0.847,0.589,,1.01,1.03,0.769,0.938,1.19,0.476,0.46
EPLC-272H,0.337,0.307,0.278,0.279,0.923,1.1,1.24,0.763,0.314,0.279,0.352,0.242,0.704,0.711,1.01,0.575,0.854,0.975,0.319,0.137
NCI-H1792,0.612,0.541,0.639,,,0.877,1.18,0.842,0.305,0.183,0.269,0.21,0.407,0.299,0.464,0.383,0.797,0.713,0.151,0.108
NCI-H2170,0.374,0.36,0.379,0.282,0.283,0.264,0.293,0.24,0.316,0.282,0.236,0.176,0.651,0.602,0.476,0.309,0.242,0.261,0.2,0.2
NCI-H2347,0.432,0.415,0.429,0.468,1.04,1.08,0.806,0.882,0.699,0.545,0.827,0.655,0.601,0.587,0.526,0.562,0.894,0.866,0.571,0.501
